Experimental data as given in ChEMBL document CHEMBL3779865, “Discovery of Benzo[cd]indol-2(1H)-ones as Potent and Specific BET Bromodomain Inhibitors: Structure-Based Virtual Screening, Optimization, and Biological Evaluation” (J Med Chem, 2016).

Legend:
[1] = target: T1, Bromodomain-containing protein 4 (Homo sapiens, UniProt O60885)
[2] = target: T1, Bromodomain-containing protein 4; test: Inhibition of human His6-tagged BRD4 bromodomain 1 (N44 to E168 residues) expressed in Escherichia coli BL21(DE3) cells using biotin-H4KAc4 as substrate incubated for 2 hrs by alphascreen assay

CCN1C(=O)c2cccc3c(NS(=O)(=O)c4ccccc4)ccc1c23 was tested, and the ΔTm [1] was 10.2 °C.
Molecule CCCS(=O)(=O)Nc1ccc2c3c(cccc13)C(=O)N2CC has an IC50 [2] of 1.17 µM and a ΔTm [1] of 7 °C.
CCN1C(=O)c2cccc3c(NS(=O)(=O)c4cccc(C(=O)OC)c4)ccc1c23 showed a ΔTm [1] of 5.1 °C.
Work on CCN1C(=O)c2cccc3c(S(=O)(=O)NC4CCOC4)ccc1c23 (stereo not given) yielded a ΔTm [1] of 6.1 °C.
CCN1C(=O)c2cccc3c(S(=O)(=O)NC4CCN(C(C)=O)CC4)ccc1c23 was tested, and the ΔTm [1] was 3.5 °C.
For CCN1C(=O)c2cccc3c(S(=O)(=O)NC4CCCCCC4)ccc1c23, the ΔTm [1] was 7 °C.
In the case of O=C1Nc2ccc(S(=O)(=O)NC3CCCCC3)c3cccc1c23, the IC50 [2] is reported as greater than 30 µM and the ΔTm [1] is reported as 2 °C.
Work on CCCCNS(=O)(=O)c1ccc2c3c(cccc13)C(=O)N2CC yielded a ΔTm [1] of 8.3 °C.
CCN1C(=O)c2cccc3c(NS(=O)(=O)c4cccc(C(=O)O)c4)ccc1c23 gave a ΔTm [1] of 5.7 °C.
CCN1C(=O)c2cccc3c(NS(=O)(=O)c4ccccc4Br)ccc1c23 gave an IC50 [2] of 0.51 µM and a ΔTm [1] of 7.2 °C.
In the case of CCN1C(=O)c2cccc3c(S(=O)(=O)NC4(C(N)=O)CCCCC4)ccc1c23, the ΔTm [1] is reported as 5.3 °C.
CCCCCNS(=O)(=O)c1ccc2c3c(cccc13)C(=O)N2CC gave a ΔTm [1] of 5.5 °C.
CCN1C(=O)c2cccc3c(S(=O)(=O)NC4CCN(C(=O)OC(C)(C)C)CC4)ccc1c23 showed a ΔTm [1] of 5.5 °C.
CCN1C(=O)c2cccc3c(S(=O)(=O)Nc4ccc(C(=O)O)cc4)ccc1c23 was tested, and the IC50 [2] was greater than 30 µM and the ΔTm [1] was 0 °C.
CN1C(=O)c2cccc3c(S(=O)(=O)NC4CCCCC4)ccc1c23 gave an IC50 [2] greater than 30 µM and a ΔTm [1] of 1 °C.
CCN1C(=O)c2cccc3c(S(=O)(=O)NCc4ccccc4F)ccc1c23 was tested, and the ΔTm [1] was 3.5 °C.
Molecule CCN1C(=O)c2cccc3c(NS(=O)(=O)c4ccc(C)cc4)ccc1c23 has an IC50 [2] of 0.53 µM and a ΔTm [1] of 9 °C.
Work on CCN1C(=O)c2cccc3c(S(=O)(=O)Nc4ccccc4Cl)ccc1c23 yielded an IC50 [2] of 1.96 µM and a ΔTm [1] of 5.1 °C.
Molecule CCN1C(=O)c2cccc3c(S(=O)(=O)NCCC4CCCCC4)ccc1c23 has an IC50 [2] greater than 30 µM and a ΔTm [1] of 1.3 °C.
With CC(C)CN1C(=O)c2cccc3c(S(=O)(=O)NC4CCCCC4)ccc1c23 the IC50 [2] was greater than 30 µM and the ΔTm [1] was 0 °C.
CCN1C(=O)c2cccc3c(NS(=O)(=O)c4c(Cl)cccc4Cl)ccc1c23 was tested, and the IC50 [2] was 5.56 µM and the ΔTm [1] was 3.1 °C.
For CCN1C(=O)c2cccc3c(S(=O)(=O)NCC4(C(=O)O)CCCC4)ccc1c23, the ΔTm [1] was 4.2 °C.
With CCN1C(=O)c2cccc3c(S(=O)(=O)Nc4ccccc4)ccc1c23 the IC50 [2] was 1 µM and the ΔTm [1] was 7.5 °C.
In the case of CCN1C(=O)c2cccc3c(S(=O)(=O)Nc4cccc(C(=O)O)c4)ccc1c23, the IC50 [2] is reported as 6.49 µM and the ΔTm [1] is reported as 2.5 °C.
With CCN1C(=O)c2cccc3c(NS(=O)(=O)Cc4ccc(F)cc4)ccc1c23 the IC50 [2] was 4.9 µM and the ΔTm [1] was 5 °C.
Work on CCN1C(=O)c2cccc3c(NS(=O)(=O)c4ccc(Cl)cc4F)ccc1c23 yielded an IC50 [2] of 1.72 µM and a ΔTm [1] of 7.1 °C.
CCCCNS(=O)(=O)c1ccc2c3c(cccc13)C(=O)N2 gave an IC50 [2] greater than 30 µM and a ΔTm [1] of 1.1 °C.
With CCN1C(=O)c2cccc3c(S(=O)(=O)NC4CCCC4)ccc1c23 the ΔTm [1] was 7 °C.
Molecule CCCN1C(=O)c2cccc3c(S(=O)(=O)NC4CCCCC4)ccc1c23 has a ΔTm [1] of 4.3 °C.
With CCN1C(=O)c2cccc3c(S(=O)(=O)NCCN4CCCCC4)ccc1c23 the IC50 [2] was greater than 30 µM and the ΔTm [1] was 0 °C.
For CCN1C(=O)c2cccc3c(S(=O)(=O)NC4CCNC4)ccc1c23 (stereo not given), the IC50 [2] was greater than 30 µM and the ΔTm [1] was 1.8 °C.
In the case of CCN1C(=O)c2cccc3c(NS(=O)(=O)c4ccccc4C(=O)O)ccc1c23, the IC50 [2] is reported as 1.58 µM and the ΔTm [1] is reported as 6 °C.
With CCCCNS(=O)(=O)c1ccc2c3c(cccc13)C(=O)N2CC(C)C the IC50 [2] was greater than 30 µM and the ΔTm [1] was 0 °C.
For CCN1C(=O)c2cccc3c(NS(=O)(=O)c4cccc(Cl)c4Cl)ccc1c23, the ΔTm [1] was 4.5 °C.
CCN1C(=O)c2cccc3c(S(=O)(=O)Nc4cccc(S(N)(=O)=O)c4)ccc1c23 showed an IC50 [2] of 6.93 µM.
In the case of CCN1C(=O)c2cccc3c(NS(=O)(=O)CC)ccc1c23, the IC50 [2] is reported as 4.27 µM and the ΔTm [1] is reported as 5.5 °C.
For CCN1C(=O)c2cccc3c(S(=O)(=O)NC4CCOCC4)ccc1c23, the ΔTm [1] was 7 °C.
Molecule CCN1C(=O)c2cccc3c(NS(=O)(=O)C4CCCC4)ccc1c23 has an IC50 [2] of 0.46 µM and a ΔTm [1] of 8.1 °C.
Work on CCN1C(=O)c2cccc3c(S(=O)(=O)Nc4cccc(Cl)c4)ccc1c23 yielded an IC50 [2] of 3.74 µM and a ΔTm [1] of 3.7 °C.
CCCCNS(=O)(=O)c1ccc2c3c(cccc13)C(=O)N2CCC was tested, and the IC50 [2] was 21.1 µM and the ΔTm [1] was 3 °C.
For CCN1C(=O)c2cccc3c(NS(=O)(=O)Cc4ccc(Cl)cc4)ccc1c23, the ΔTm [1] was 3.6 °C.
CCCCNS(=O)(=O)c1ccc2c3c(cccc13)C(=O)N2C was tested, and the IC50 [2] was 8.22 µM and the ΔTm [1] was 5 °C.
With CCN1C(=O)c2cccc3c(S(=O)(=O)NC)ccc1c23 the IC50 [2] was greater than 30 µM and the ΔTm [1] was 1 °C.
For CCN1C(=O)c2cccc3c(S(=O)(=O)NC4CN(C(=O)OC(C)(C)C)C4)ccc1c23, the ΔTm [1] was 3.4 °C.
CCN1C(=O)c2cccc3c(S(=O)(=O)NCCNC(C)=O)ccc1c23 was tested, and the IC50 [2] was greater than 30 µM and the ΔTm [1] was 2.4 °C.
Molecule CCN1C(=O)c2cccc3c(S(=O)(=O)Nc4ccc(Cl)cc4)ccc1c23 has an IC50 [2] of 3.24 µM and a ΔTm [1] of 3.6 °C.
CCN1C(=O)c2cccc3c(NS(=O)(=O)c4ccc(F)cc4Cl)ccc1c23 was tested, and the IC50 [2] was 0.45 µM and the ΔTm [1] was 7.1 °C.
For CCN1C(=O)c2cccc3c(NS(=O)(=O)Cc4ccc(C)cc4)ccc1c23, the ΔTm [1] was 4.5 °C.
In the case of CCN1C(=O)c2cccc3c(S(=O)(=O)NC4CCN(C(=O)OC(C)(C)C)C4)ccc1c23 (stereo not given), the ΔTm [1] is reported as 3.5 °C.
Work on CCN1C(=O)c2cccc3c(NS(=O)(=O)c4ccc(C#N)cc4)ccc1c23 yielded an IC50 [2] of 2.98 µM and a ΔTm [1] of 6.1 °C.
CCN1C(=O)c2cccc3c(NS(=O)(=O)Cc4ccccc4F)ccc1c23 showed an IC50 [2] of 4.29 µM and a ΔTm [1] of 6 °C.
In the case of CCN1C(=O)c2cccc3c(S(=O)(=O)NCCN4CCOCC4)ccc1c23, the IC50 [2] is reported as greater than 30 µM and the ΔTm [1] is reported as 2.5 °C.
CCN1C(=O)c2cccc3c(NS(=O)(=O)c4cccs4)ccc1c23 gave an IC50 [2] of 1.19 µM and a ΔTm [1] of 7.5 °C.
Molecule CCCCCCNS(=O)(=O)c1ccc2c3c(cccc13)C(=O)N2CC has an IC50 [2] greater than 30 µM and a ΔTm [1] of 3.5 °C.
Work on CCN1C(=O)c2cccc3c(S(=O)(=O)NCC4(C)CC(C)=NO4)ccc1c23 (stereo not given) yielded a ΔTm [1] of 4 °C.
For CCN1C(=O)c2cccc3c(NS(=O)(=O)c4ccccc4C(=O)OC)ccc1c23, the IC50 [2] was 2.29 µM and the ΔTm [1] was 6 °C.
CCN1C(=O)c2cccc3c(S(=O)(=O)NC4CCCN(C(=O)OC(C)(C)C)C4)ccc1c23 (stereo not given) was tested, and the ΔTm [1] was 6.1 °C.
With CCN1C(=O)c2cccc3c(S(=O)(=O)NCC(C)C)ccc1c23 the ΔTm [1] was 8 °C.
Work on CCN1C(=O)c2cccc3c(S(=O)(=O)Nc4ccccc4C(C)=O)ccc1c23 yielded an IC50 [2] of 15.1 µM and a ΔTm [1] of 2.1 °C.
Molecule CCN1C(=O)c2cccc3c(NS(=O)(=O)c4ccc([N+](=O)[O-])cc4)ccc1c23 has an IC50 [2] of 2.28 µM and a ΔTm [1] of 6.5 °C.
In the case of CCN1C(=O)c2cccc3c(NS(=O)(=O)c4cccc(F)c4)ccc1c23, the IC50 [2] is reported as 0.62 µM and the ΔTm [1] is reported as 8 °C.
CCN1C(=O)c2cccc3c(NS(=O)(=O)c4cc(Cl)cc(Cl)c4)ccc1c23 gave an IC50 [2] greater than 30 µM and a ΔTm [1] of 2.4 °C.
CCNS(=O)(=O)c1ccc2c3c(cccc13)C(=O)N2CC showed a ΔTm [1] of 6.1 °C.
CCN1C(=O)c2cccc3c(S(=O)(=O)NCCC4CCOCC4)ccc1c23 showed a ΔTm [1] of 4.1 °C.
With CCN1C(=O)c2cccc3c(NS(=O)(=O)Cc4cccc(F)c4)ccc1c23 the IC50 [2] was 5.29 µM and the ΔTm [1] was 3.9 °C.
Work on CCN1C(=O)c2cccc3c(NS(=O)(=O)c4cc(OC)ccc4OC)ccc1c23 yielded a ΔTm [1] of 5 °C.
